# In ChEMBL document CHEMBL1201862, “PubChem BioAssay data set” (2004):
# “And” between values parts separate entries of the source, which are not always exact repeats. Identical values can stand only once. The source made the active and inactive calls.
# Legend:
# [1] = Luminescence Cell-Based/Microorganism Confirmation at Dose of Inhibitors of Trypanosoma cruzi Infection. [Related pubchem assays: 1885, 1968 ]; assay type: functional
# [2] = T. cruzi infection blockers in NIH3T3 cells – beta-gal luminescence, NIH3T3 host cells, confirmation (AID 2630); assay type: functional, cell-based; conditions: Mus musculus
# [3] = Trypanosoma cruzi growth suppression in host cells – NIH3T3 host cells, beta-gal luminescence, confirmation (AID 2044); assay type: functional, cell-based;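 further: intracellular parasites grown in NIH/3T3 mouse fibroblasts as host cells; luminescent beta-galactosidase reporter signal from transgenic T. cruzi replicating inside host cells; inhibitors lower the luminescence signal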
# [4] = Luminescence Cell-Based Secondary HTS screen to identify cytotoxic compounds of NIH3T3 cells. [Related pubchem assays: 1885, 1968 ]; assay type: functional
# [5] = NIH3T3 cell viability loss – ATP luminescence, mouse fibroblasts, counter-screen, dose response (AID 2010); assay type: functional, cell-based;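 further: cells exposed to compound for about 90 hours before reading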
# CAAX prenyl protease 1 = CAAX prenyl protease 1 (Saccharomyces cerevisiae S288c, UniProt P47154); assay: yeast CAAX protease Ste24 inhibition – biochemical, S. cerevisiae, plate reader, cherry-pick, dose response (AID 488815)
# CAAX prenyl protease 2 = biological target: T1, CAAX prenyl protease 2 (Saccharomyces cerevisiae S288c, UniProt Q03530); assay type: biochemical
# T1 sequence (Q03530 whole entry): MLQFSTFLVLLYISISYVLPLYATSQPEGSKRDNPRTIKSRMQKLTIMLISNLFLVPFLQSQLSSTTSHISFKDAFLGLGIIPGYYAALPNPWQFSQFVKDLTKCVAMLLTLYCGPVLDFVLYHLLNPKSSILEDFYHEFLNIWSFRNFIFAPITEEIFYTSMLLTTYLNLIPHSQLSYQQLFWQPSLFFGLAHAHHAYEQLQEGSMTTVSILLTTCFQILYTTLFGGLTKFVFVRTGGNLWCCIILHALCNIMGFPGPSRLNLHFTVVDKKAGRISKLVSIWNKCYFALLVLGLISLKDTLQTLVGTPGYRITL
# [6] = biological target: Mitogen-activated protein kinase 10 (Homo sapiens, UniProt P53779); assay: Dose response biochemical screening assay for inhibitors of c-Jun N-Terminal Kinase 3 (JNK3). [Related pubchem assays: 746 ]
# Estrogen receptor = biological target: T2, Estrogen receptor (Homo sapiens, UniProt P03372);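 further: potency for inhibiting coactivator peptide recruitment to the receptor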
# T2 sequence (P03372 whole entry): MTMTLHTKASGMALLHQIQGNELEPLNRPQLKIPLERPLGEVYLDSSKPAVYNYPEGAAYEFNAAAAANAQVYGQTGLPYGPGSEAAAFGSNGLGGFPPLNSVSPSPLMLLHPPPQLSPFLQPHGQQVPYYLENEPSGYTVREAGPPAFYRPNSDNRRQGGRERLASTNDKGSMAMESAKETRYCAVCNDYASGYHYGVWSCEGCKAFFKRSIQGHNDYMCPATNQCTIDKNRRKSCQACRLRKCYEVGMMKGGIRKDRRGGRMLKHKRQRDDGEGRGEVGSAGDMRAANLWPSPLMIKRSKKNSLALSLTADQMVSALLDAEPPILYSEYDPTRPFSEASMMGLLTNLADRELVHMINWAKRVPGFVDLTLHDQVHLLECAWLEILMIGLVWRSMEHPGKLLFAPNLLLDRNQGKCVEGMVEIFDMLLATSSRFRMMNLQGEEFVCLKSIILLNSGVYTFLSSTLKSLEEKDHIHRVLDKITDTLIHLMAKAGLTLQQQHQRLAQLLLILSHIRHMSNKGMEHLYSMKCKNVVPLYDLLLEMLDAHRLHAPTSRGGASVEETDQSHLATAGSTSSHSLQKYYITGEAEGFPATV
# Trypsin = Trypsin (Sus scrofa, UniProt P00761); assay: trypsin protease activity blockade – biochemical, quenched peptide fluorescence, cherry-pick, selectivity assay for Rce1 protease inhibitor project, dose response (AID 488789)
# [7] = biological target: T3, Voltage-gated N-type calcium channel alpha-1B subunit/Amyloid beta A4 precursor protein-binding family A member 1 (Homo sapiens, UniProt Q00975+Q02410); assay: disruptors of Mint-PDZ/N-type channel peptide interaction – biochemical, HTRF, SAR follow-up (AID 2489); assay type: functional
# T3 sequence (Q00975 whole entry): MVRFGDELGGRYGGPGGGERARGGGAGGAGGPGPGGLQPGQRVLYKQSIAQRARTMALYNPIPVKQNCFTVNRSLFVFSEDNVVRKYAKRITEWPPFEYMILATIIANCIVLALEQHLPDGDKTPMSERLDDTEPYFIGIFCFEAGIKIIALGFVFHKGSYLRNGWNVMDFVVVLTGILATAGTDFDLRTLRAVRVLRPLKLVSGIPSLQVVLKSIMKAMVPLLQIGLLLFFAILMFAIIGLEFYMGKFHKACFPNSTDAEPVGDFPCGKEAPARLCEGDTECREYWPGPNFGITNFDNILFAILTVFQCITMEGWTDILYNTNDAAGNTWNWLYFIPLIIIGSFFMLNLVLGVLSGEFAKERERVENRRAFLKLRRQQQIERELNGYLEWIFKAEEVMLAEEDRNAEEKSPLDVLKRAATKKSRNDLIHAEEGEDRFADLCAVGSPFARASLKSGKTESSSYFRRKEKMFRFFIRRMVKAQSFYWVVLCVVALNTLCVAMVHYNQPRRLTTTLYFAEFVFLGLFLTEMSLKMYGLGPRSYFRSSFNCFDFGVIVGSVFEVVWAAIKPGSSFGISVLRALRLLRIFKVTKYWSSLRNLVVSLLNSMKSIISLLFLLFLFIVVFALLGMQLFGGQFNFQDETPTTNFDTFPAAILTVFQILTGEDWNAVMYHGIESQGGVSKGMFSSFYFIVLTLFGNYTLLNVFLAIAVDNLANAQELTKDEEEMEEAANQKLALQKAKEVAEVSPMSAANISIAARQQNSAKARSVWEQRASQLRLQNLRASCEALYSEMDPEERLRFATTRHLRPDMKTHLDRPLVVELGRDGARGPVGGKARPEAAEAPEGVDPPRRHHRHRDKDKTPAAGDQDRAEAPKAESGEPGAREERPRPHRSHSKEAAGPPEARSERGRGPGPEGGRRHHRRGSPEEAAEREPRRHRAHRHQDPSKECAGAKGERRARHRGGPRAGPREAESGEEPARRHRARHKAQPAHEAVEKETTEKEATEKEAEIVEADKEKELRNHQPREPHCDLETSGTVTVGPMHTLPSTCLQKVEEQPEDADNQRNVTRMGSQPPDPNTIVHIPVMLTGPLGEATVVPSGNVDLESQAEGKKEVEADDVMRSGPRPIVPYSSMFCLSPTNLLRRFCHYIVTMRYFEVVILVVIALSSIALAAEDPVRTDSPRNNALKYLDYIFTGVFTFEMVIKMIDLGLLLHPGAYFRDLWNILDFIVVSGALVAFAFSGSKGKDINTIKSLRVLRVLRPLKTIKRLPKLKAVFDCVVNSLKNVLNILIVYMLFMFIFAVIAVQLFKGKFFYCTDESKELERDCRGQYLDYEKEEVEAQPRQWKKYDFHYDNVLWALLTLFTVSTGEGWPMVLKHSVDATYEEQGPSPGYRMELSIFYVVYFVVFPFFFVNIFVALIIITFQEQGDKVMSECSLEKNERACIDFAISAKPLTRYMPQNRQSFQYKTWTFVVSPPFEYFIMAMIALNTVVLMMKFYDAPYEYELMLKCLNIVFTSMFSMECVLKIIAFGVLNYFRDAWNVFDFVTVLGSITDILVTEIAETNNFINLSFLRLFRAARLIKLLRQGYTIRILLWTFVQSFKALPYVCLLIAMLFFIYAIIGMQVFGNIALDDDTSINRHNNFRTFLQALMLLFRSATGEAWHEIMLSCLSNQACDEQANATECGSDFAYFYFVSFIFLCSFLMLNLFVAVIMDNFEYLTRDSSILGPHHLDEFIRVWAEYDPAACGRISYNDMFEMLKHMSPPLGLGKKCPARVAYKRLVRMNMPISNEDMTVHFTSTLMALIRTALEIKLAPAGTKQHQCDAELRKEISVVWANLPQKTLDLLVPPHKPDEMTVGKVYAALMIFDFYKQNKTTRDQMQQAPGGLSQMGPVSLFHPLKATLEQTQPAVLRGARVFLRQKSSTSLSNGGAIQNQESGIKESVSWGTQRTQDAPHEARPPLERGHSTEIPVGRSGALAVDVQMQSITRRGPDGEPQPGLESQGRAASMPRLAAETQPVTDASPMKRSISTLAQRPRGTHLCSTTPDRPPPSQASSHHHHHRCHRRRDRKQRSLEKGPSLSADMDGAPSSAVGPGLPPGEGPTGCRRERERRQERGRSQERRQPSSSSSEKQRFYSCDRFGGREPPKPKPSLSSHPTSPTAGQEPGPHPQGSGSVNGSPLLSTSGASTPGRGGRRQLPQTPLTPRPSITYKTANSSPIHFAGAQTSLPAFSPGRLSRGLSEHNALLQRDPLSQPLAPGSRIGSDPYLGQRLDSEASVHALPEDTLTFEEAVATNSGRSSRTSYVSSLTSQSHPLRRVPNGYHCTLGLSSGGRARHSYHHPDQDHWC
# T3 sequence (Q02410 whole entry): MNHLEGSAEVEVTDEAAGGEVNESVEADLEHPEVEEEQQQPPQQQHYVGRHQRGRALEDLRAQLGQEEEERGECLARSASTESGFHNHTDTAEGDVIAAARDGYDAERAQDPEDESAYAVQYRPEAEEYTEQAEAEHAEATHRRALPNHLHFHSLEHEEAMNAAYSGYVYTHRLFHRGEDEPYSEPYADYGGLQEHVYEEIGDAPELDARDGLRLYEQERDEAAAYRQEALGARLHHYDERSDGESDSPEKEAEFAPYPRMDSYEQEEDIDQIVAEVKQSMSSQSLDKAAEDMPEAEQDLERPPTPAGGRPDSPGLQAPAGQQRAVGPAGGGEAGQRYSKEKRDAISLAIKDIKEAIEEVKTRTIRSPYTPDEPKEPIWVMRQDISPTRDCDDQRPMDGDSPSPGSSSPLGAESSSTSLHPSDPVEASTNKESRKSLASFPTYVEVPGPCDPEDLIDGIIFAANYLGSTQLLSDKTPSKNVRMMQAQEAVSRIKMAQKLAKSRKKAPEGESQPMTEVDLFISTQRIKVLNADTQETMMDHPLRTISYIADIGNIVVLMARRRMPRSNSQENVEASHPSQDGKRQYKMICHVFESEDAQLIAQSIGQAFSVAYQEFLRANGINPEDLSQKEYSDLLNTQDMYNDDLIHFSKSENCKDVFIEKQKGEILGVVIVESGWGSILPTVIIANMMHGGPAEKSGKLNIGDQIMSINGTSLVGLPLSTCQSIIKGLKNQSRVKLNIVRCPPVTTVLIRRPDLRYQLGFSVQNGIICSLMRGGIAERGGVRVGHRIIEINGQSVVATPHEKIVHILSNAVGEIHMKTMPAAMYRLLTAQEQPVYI
# [8] = biological target: T4, Probable nicotinate-nucleotide adenylyltransferase (Staphylococcus aureus (strain N315), UniProt P65502); assay type: functional, Staphylococcus aureus subsp. aureus N315; conditions: read-out: IC50_Mean;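 on IC50 Mean: confirmatory dose-response retesting of NadD inhibitor hits first found in an ultra-high-throughput screen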
# T4 sequence (P65502 whole entry): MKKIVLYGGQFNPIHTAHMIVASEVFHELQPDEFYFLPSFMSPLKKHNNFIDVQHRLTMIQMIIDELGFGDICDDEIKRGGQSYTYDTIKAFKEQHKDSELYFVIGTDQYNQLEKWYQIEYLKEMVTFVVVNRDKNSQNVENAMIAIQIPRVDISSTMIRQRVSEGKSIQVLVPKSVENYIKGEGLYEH
# [9] = biological target: T5, Induced myeloid leukemia cell differentiation protein Mcl-1 (Homo sapiens, UniProt Q07820); assay: blockers of MCL1 binding to BIM peptide – biochemical, fluorescence polarization, BIM-BH3 peptide, 1536-well, dose response (AID 2217)
# [10] = biological target: T3, Voltage-gated N-type calcium channel alpha-1B subunit/Amyloid beta A4 precursor protein-binding family A member 1; assay type: protein assay
# Bcl-2-like protein 1 = Bcl-2-like protein 1 (Homo sapiens, UniProt Q07817); assay: blockers of BCLXL peptide binding – biochemical, fluorescence polarization, 1536-well, selectivity assay for MCL1 inhibitor project, dose response (AID 2218)
# [11] = biological target: DNA (cytosine-5)-methyltransferase 1 (Homo sapiens, UniProt P26358); assay: inhibition of DNA methylation by DNMT1 – biochemical, fluorescent molecular beacon, confirmation (AID 602386); assay type: functional
# [12] = biological target: Protein-tyrosine kinase 2-beta (Homo sapiens, UniProt Q14289);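 further: potency of inhibitors of PYK2 kinase phosphorylation of poly-GT substrate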
# [13] = biological target: T4, Probable nicotinate-nucleotide adenylyltransferase; assay type: functional, Staphylococcus aureus subsp. aureus N315
# Protein Rev = Protein Rev (Human immunodeficiency virus type 1 group M subtype B (isolate WMJ22)(HIV-1), UniProt P05866); assay: inhibitors of Rev protein–RRE RNA complex – biochemical, protein-RNA interaction, dose response (AID 842); set-up: species or system Human immunodeficiency virus 1
# Genome polyprotein = biological target: T6, Genome polyprotein (Hepatitis C virus, UniProt Q2Q167); assay: disruption of hepatitis C core self-association – biochemical, TR-FRET, dose response (AID 2159); set-up: species or system Hepacivirus hominis;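 further: blocks dimerization of HCV core protein measured by TR-FRET between tagged core106 pairs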
# T6 sequence (Q2Q167 whole entry): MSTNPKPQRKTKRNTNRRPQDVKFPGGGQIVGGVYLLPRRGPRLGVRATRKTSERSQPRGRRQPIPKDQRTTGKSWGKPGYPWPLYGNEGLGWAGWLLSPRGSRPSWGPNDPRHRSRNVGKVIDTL
# [14] = biological target: T3, Voltage-gated N-type calcium channel alpha-1B subunit/Amyloid beta A4 precursor protein-binding family A member 1; assay type: protein assay; remark: listed apart in the source
# [15] = biological target: T5, Induced myeloid leukemia cell differentiation protein Mcl-1; assay type: functional
# SUMO E1/E2 = SUMO E1/E2 (Homo sapiens, UniProt P63279+Q9UBE0+Q9UBT2); assay: SAR analysis of SUMOylation using HTRF in an in-Vitro dose response assay. [Related pubchem assays (depositor defined):AID2006, AID2011, AID2018, AID2069, AID2658]; assay type: functional
# Chain of SUMO E1/E2 (Q9UBE0 whole entry): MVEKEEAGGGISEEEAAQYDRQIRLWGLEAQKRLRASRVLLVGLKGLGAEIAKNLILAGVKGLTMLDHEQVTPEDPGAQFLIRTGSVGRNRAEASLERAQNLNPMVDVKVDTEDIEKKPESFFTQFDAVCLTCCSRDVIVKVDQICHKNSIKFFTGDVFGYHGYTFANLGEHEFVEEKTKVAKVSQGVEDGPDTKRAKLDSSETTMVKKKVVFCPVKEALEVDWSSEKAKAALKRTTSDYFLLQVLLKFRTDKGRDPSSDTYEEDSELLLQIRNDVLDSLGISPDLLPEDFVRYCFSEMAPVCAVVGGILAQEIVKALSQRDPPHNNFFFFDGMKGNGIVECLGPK
# Chain of SUMO E1/E2 (Q9UBT2 whole entry): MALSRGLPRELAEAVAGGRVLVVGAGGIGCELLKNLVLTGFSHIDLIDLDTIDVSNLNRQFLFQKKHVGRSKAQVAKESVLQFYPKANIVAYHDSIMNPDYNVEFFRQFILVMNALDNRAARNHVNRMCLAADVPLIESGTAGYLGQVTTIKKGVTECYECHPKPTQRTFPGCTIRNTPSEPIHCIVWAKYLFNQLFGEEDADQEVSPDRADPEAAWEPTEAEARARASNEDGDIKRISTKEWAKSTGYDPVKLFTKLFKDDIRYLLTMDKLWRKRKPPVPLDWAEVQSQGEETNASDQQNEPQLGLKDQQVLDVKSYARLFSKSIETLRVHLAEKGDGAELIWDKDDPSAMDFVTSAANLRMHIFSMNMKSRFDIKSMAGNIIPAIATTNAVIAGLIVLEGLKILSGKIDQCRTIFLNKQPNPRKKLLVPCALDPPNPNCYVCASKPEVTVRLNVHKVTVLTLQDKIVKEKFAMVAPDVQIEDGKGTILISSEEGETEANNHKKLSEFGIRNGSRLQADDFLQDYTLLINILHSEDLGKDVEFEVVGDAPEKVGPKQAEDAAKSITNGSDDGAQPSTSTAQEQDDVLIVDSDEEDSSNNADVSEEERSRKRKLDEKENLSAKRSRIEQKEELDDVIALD
# Chain of SUMO E1/E2 (P63279 whole entry): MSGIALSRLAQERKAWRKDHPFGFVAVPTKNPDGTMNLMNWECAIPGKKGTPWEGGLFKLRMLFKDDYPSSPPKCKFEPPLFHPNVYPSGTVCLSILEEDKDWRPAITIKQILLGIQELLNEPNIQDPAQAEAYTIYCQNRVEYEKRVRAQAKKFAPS
# [16] = biological target: T3, Voltage-gated N-type calcium channel alpha-1B subunit/Amyloid beta A4 precursor protein-binding family A member 1; assay: disruptors of Mint-PDZ/N-type channel peptide interaction – biochemical, HTRF, set 2, SAR follow-up (AID 434980); assay type: functional
# [17] = biological target: Intestinal-type alkaline phosphatase (Mus musculus, UniProt P24822); assay: PubChem AID 488875; assay type: functional
# [18] = biological target: T7, Intestinal-type alkaline phosphatase (Homo sapiens, UniProt P09923); assay: human intestinal alkaline phosphatase activators, dose response, biochemical, luminescence, uHTS hits (AID 463120); assay type: functional
# T7 sequence (P09923 whole entry): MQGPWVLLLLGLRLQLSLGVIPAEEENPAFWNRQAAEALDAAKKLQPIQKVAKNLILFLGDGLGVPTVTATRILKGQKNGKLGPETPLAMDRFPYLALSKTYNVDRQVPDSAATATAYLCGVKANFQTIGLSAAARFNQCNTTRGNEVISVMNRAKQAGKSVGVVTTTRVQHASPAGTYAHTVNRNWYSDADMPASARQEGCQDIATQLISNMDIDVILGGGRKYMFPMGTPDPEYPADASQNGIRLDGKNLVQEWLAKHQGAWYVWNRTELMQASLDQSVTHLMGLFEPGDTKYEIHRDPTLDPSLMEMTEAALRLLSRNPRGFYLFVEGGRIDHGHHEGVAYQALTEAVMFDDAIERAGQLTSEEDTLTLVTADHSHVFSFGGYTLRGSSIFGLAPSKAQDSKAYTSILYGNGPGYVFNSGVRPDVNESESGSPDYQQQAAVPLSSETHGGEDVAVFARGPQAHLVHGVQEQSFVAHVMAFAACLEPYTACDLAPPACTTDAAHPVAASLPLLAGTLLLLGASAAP
# Streptokinase A = biological target: T8, Streptokinase A (Streptococcus pyogenes serotype M1, UniProt P10520); assay: viability-normalized secreted streptokinase activity reduction – plasminogen activation absorbance, OD405, dose response (AID 1914); assay type: functional, Streptococcus pyogenes M1 GAS;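 further: secreted streptokinase activity via plasminogen activation per viability signal from cell pellet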
# T8 sequence (P10520 whole entry): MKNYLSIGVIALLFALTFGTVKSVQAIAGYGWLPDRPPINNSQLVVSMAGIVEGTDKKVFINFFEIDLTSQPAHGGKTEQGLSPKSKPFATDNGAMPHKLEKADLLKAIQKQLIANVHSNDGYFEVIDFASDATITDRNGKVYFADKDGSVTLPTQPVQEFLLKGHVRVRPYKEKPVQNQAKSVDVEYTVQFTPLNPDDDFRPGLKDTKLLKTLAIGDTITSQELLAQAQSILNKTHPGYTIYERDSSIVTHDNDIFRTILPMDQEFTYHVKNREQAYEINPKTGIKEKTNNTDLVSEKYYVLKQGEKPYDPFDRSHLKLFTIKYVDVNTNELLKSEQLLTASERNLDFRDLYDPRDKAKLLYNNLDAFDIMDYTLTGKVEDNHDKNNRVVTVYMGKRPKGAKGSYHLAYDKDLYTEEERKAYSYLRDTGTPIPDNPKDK
# [19] = test system: Streptococcus sp. 'group A'; assay: Streptococcus pyogenes SK(-)GAS viability under kanamycin – luminescence, BacTiterGlo, confirmation, counter-screen for streptokinase expression inhibitor project, dose response (AID 1900); assay type: functional, organism-based
# Streptococcus = assay: GAS UMAA2166 growth inhibition – luminescence, BacTiterGlo, counter-screen for streptokinase expression inhibitor project, dose response (AID 1915); assay type: functional, organism-based;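 further: potency for reduction of bacterial viability or growth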
# [20] = NIH-3T3 fibroblast cytotoxicity, dose response, cytotoxicity control, cell-based, fluorescence, Alamar Blue, secondary assay (AID 2327); assay type: functional;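 further: NIH-3T3 mouse fibroblasts cultured with fluconazole at 8 µg/mL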
# [21] = fluconazole-exposed Candida albicans growth modulators – fluorescence, retest, confirmation (AID 2467); assay type: functional, cell-based
# [22] = biological target: T7, Intestinal-type alkaline phosphatase; assay: activation of human intestinal alkaline phosphatase – biochemical, luminescent, uHTS hits, set 2, dose response (AID 488817); assay type: functional;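 further: potency of activators that raise enzyme activity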
# [23] = biological target: T9, Alkaline phosphatase, tissue-nonspecific isozyme (Homo sapiens, UniProt P05186); assay: activation of tissue-nonspecific alkaline phosphatase – biochemical, TNAP isozyme, human IAP uHTS hits, selectivity assay for human IAP activator project, dose response (AID 488886); assay type: functional;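 further: potency of compounds raising TNAP activity as a selectivity check on IAP activators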
# T9 sequence (P05186 whole entry): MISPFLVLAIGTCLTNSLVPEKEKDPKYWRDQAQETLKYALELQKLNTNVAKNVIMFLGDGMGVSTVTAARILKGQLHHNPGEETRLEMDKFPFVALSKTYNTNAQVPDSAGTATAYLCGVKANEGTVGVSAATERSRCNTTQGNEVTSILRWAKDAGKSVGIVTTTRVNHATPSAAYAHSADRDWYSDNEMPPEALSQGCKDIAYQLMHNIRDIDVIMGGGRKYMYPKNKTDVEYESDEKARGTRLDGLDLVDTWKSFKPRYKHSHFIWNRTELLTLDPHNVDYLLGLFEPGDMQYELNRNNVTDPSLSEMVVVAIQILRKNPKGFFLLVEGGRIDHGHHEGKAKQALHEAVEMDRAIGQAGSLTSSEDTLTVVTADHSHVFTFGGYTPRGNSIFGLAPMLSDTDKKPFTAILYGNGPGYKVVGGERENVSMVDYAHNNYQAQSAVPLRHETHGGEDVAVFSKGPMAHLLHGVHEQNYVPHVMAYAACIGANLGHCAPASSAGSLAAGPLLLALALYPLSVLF
structure (smiles),measurement,setting,value
CC(=O)c1cccc(CN2CCCC(CCC(=O)NCc3ccc(F)c(F)c3)C2)c1 (centres undefined),EC50,cells,0.07 µM (active)
same,EC50,[1],0.069 µM (active)
same,EC50,[2],0.069 µM (active)
same,EC50,[3],< 0.1 µM (active)
same,EC50,[4],> 195 µM (not active)
same,EC50,[5],> 60 µM (not active)
O=C1c2ccccc2NC2=NCCCCN12,AC50,CAAX prenyl protease 1,3.9 µM (active)
same,AC50,CAAX prenyl protease 2,31.1 µM (active)
same,IC50,[6],39.5 µM (not active)
same,IC50,Estrogen receptor,> 50 µM (not active)
same,AC50,Trypsin,11.4 µM (active)
O=C(N/N=C/c1cccc(F)c1)c1cc(-c2ccco2)nc2ccccc12,IC50,[7],> 56.8 µM (inactive) and 8.96 µM (active)
same,IC50,[8],21.1 µM (active)
same,IC50,[9],7.19 µM (active)
same,IC50,[10],8.21 µM (active)
same,IC50,Bcl-2-like protein 1,> 109 µM (not active)
same,IC50,[11],4.81 µM (active)
same,IC50,[12],2.25 µM (active)
same,IC50,[13],7.33 µM (active)
same,IC50,Protein Rev,> 79.4 µM (not active)
same,IC50,Genome polyprotein,> 49.8 µM (not active)
same,IC50,[14],3.18 µM (active)
same,IC50,[15],1.67 µM (active)
same,IC50,SUMO E1/E2,7.16 µM (active) and 9.07 µM (active)
same,IC50,[16],12.9 µM (active) and 4.79 µM (active)
CC(C)CC(=O)NC(=S)NNC(=O)c1ccc(NC(=O)C2CCCCC2)cc1,EC50,[17],43.2 µM (active)
same,EC50,[18],18.7 µM (active)
same,EC50,Streptokinase A,> 150 µM (not active)
same,EC50,[19],0.517 µM (active)
same,EC50,Streptococcus,9.89 µM (active)
same,EC50,[20],43.7 µM (active)
same,EC50,[21],2.57 µM (active)
same,EC50,[22],58.1 µM (active)
same,EC50,[23],70.2 µM (active)
